# According to PMC9032233, “2-{5-[(Z,2Z)-2-Chloro-3-(4-nitrophenyl)-2-propenylidene]-4-oxo-2-thioxothiazolidin-3-yl}-3-methylbutanoic Acid as a Potential Anti-Breast Cancer Molecule” (International Journal of Molecular Sciences, 2022):
# Where “and” joins values, the source holds several entries; their conditions need not be identical. Equal entries are not always repeated.
# Assays:
# [1] = Metabolic stability with rat liver microsomes (RLMs); type: in vitro ADME
# Description: The metabolic stability was estimated using rat liver microsomes (RLMs) obtained from Sigma-Aldrich (St. Louis, MO, USA). Les-3331 was incubated in the presence of RLMs and NADPH Regeneration System (Promega, Madison, WI, USA) in Tris-HCl buffer (pH 7.4) for 120 min. Cold ethanol was added next to stop the reaction. The reaction mixture was centrifuged. The aforementioned UPLC-MS device was used to analyze the supernatant. MS/MS ion fragment analyses were performed for Les-3331 and the main metabolite. The in silico prediction of possible Les-3331 metabolic pathways was performed by MetaSite 8.0.1. Software (Molecular Discovery Ltd., Hertfordshire, UK).
# CYP2D6 = molecular target: T1, CYP2D6 (Homo sapiens, UniProt P10635); experiment: Luminescent CYP2D6 P450-Glo assay; type: in vitro ADME; conditions: at the highest dose 25 µM
# T1 construct: purchased Promega (Madison, WI, USA)
# Description: For investigation of potential drug-drug interactions, the luminescent CYP3A4 and CYP2D6 P450-Glo assays obtained from Promega® (Madison, WI, USA) were used. Les-3331 was tested in triplicate at the final concentrations from 0.01 to 25 µM according to the protocols provided by Promega®. The reference inhibitors were tested at 1 µM. The luminescent signal was measured using a microplate reader, EnSpire PerkinElmer (Waltham, MA, USA).
# [2] = test system: Salmonella Typhimurium TA100; conditions: Ames MPF
# Description: The mutagenicity was evaluated using Ames microplate fluctuation protocol (MPF) from Xenometrix (Allschwil, Switzerland). The applied Salmonella Typhimurium TA100 strain was enabled to detect base-pair substitution (hisG46 mutation, for which target is GGG). Les-3331 was tested independently in two final concentrations, 1 and 5 µM, in triplicate. The reference mutagen 4-NQO was tested at 26.3 µM. The occurrence of revertants was visualized using pH indicator dye, which was present in the bacterial medium. The color changes from violet to yellow were confirmed using measurements of absorbance with a microplate reader, EnSpire, at 420 nm. According to the protocols and data sheets provided by Xenometrix, the medium control baseline (MCB) was calculated first, which refers to the number of revertants observed in the control (growth medium + 1% DMSO) plus standard deviation. Next, the Binomial B-value was calculated for tested compounds which indicates the probability that spontaneous mutations occurred. The fold increase ≥2 over the MCB and/or Binomial B-value ≥ 0.99 are considered as the mutagen alert.
# human skin fibroblasts = experiment: MTT cell viability assay, skin fibroblasts; type: cell-based; conditions: Skin fibroblast, 24 h incubation
# Description: Cell culture MCF-7, MDA-MB-231 human breast cancer cells, and fibroblasts skin cells were purchased from the ATCC—American Type Culture Collection. All cell lines were maintained in DMEM (Corning, Kennebunk, ME, USA). The medium was supplemented with 10% fetal bovine serum—FBS (Eurx, Gdansk, Poland) and 1% antimicrobial substances: penicillin–streptomycin (Corning, Kennebunk, ME, USA). The incubator asserted appropriate growth conditions required for these cell lines: 5% of CO2, at 37 °C, with the humidity between 90–95%. Cells were seeded in 100 mm round dishes. An amount of 0.05% trypsin containing 0.02% EDTA (Corning, Kennebunk, ME, USA) and phosphate-buffered saline (PBS) without calcium and magnesium (Corning, Kennebunk, ME, USA) was used to detach cells from a plate once 80–90% cell confluence was achieved. In the next step, cells were reseeded in six-well plates (density—5 × 10^5 of cells per well) in 1 mL of DMEM after a 24 h incubation used in the presented tests.
# To examine the effect of Les-3331 on cell viability, the MTT assay was performed. […] The absorbance was measured using Spectrophotometer UV-VIS Helios Gamma (Unicam/ThermoFisher Scientific Inc., Waltham, MA, USA) at a wavelength of 570 nm. The obtained absorbance in untreated control cells was taken as 100%, while the survival of the cells incubated with tested compounds presented as a percentage of the control value.
# [3] = Parallel artificial membrane permeability assay (PAMPA); type: in vitro ADME; conditions: 200 µM in PBS pH 7.4, 5 h at RT, read-out: permeability coefficient Pe
# Description: All in vitro assays used for the evaluation of Les-3331 ADME-Tox parameters were described previously. In brief, for the determination of permeability, Pre-coated PAMPA Plate System Gentest^TM was purchased from Corning (Tewksbury, MA, USA). […] PAMPA plates with compounds added to the donor wells were incubated for 5 h at RT. UPLC-MS Waters ACQUITY—TQD system with the TQ Detector (Waters, Milford, MI, USA) was used next for determination of compounds concentrations in donor and acceptor wells, which were required for calculation of permeability coefficient Pe according to formulas provided by the manufacturer.
# T1 sequence (P10635 whole entry): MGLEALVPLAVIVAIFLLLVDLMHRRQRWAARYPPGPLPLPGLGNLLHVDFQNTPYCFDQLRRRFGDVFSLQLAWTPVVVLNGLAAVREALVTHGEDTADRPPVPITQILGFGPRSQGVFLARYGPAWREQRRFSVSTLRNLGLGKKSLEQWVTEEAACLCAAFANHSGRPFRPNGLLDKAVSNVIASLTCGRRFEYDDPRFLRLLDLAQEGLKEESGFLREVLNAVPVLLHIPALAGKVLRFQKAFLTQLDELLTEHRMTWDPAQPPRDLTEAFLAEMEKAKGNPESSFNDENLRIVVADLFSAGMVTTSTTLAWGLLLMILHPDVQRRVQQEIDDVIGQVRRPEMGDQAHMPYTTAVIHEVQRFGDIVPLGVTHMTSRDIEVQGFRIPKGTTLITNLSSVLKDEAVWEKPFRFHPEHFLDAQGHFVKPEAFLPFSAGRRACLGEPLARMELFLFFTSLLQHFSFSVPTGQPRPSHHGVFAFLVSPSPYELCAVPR
smiles,measurement,setting,value
"CC(C)C(C(=O)O)N1C(=O)/C(=C/C(Cl)=C/c2ccc([N+](=O)[O-])cc2)SC1=S (stereo not shown) [Les-3331, 2-{5-[(Z,2Z)-2-chloro-3-(4-nitrophenyl)-2-propenylidene]-4-oxo-2-thioxothiazolidin-3-yl}-3-methylbutanoic acid]",% of the Remaining Substrate,"[1]; RLMs, 120 min incubation",52% and 52.03%
same,Proposed Metabolic Pathway,"[1]; main metabolite M1, RLMs 120 min",decomposition
same,Proposed Metabolic Pathway,"[1]; metabolite M2, RLMs 120 min",decomposition and hydroxylation
same,Proposed Metabolic Pathway,"[1]; metabolite M3, RLMs 120 min",decomposition and dehydrogenation
same,Proposed Metabolic Pathway,"[1]; metabolite M4, RLMs 120 min",decomposition
same,effect on CYP2D6 activity,CYP2D6,slight inhibition
same,mutagenicity,"[2]; TA100, 1 µM",not mutagenic
same,fold increase in MCB,"[2]; TA100, 5 µM",twofold increase in MCB was not reached
same,IC50,human skin fibroblasts,28.5 µM
same,"Papp at 5 h, 200 µM",[3],0.96 ×10⁻⁶ cm/s
